Assay results: US12448383B2, “Compounds and methods for treatment of viral infections” (priority 2022, dated 2025)
Like-named read-outs stand apart in the source and are kept apart here.

How the values were obtained:
[1] = system: Respiratory syncytial virus recombinant with luciferase (RSV-Luc5) in Normal Human Bronchial Epithelial (NHBE) cells; test: microbe, parasite or virus in culture; format: cell-based
[2] = CC50 MT4 cytotoxicity (Cell-Titer Glo); format: cell-based; conditions: human
Procedure, shortened: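 CC50 values are the concentrations cutting viability by 50%, fitted by non-linear regression against untreated (100%) and 2 μM puromycin (0%) controls. Cell-Titer Glo luminescence measured after 4-5 days at 37° C exposure of uninfected MT-4 and HEp-2 cells to 3-fold dilutions spanning 15 nM to 100,000 nM.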

[3] = system: SARS Coronavirus 2 recombinant with NanoLuc (SARS-CoV2-NLuc) in A549-hACE2 cells; test: microbe, parasite or virus in culture; format: cell-based
[4] = Stability in pH2 buffered solution; format: physicochemical
Experimental: Example N: Stability in p112 and p117 Buffered Solutions
The aqueous stability of compounds over a time of 24 hours at 40° C. was assessed. Stability was determined in 50 mM phosphate buffered solutions at both pH2 and pH7, with 150 mM NaCl (to achieve isotonicity). 3-5 mg of solid compounds were added to 7 mL scintillation vials. Acetonitrile was added to each vial to produce a 1 mg/mL stock solution. Stock solutions were diluted to 50 μg/mL in either pH2 or pH7 phosphate buffer, to a volume of 1 mL. For each compound and pH condition, 50 μg/mL samples were prepped in duplicate. One sample was placed on the UPLC tray at 40° C. for analysis, and the second sample was placed in a 40° C. oven for storage. Sample preps for each compound were offset by 40 minutes to account for run time on UPLC.
Concentration timepoints were measured at 0, 3, 6, 9, and 12 hrs. After 24 hrs, samples in the 40° C. oven were removed and analyzed by UPLC.
In FIG. 2, % AN stands for % area normalized. That is, % AN is the area of the compound peak relative to the sum of areas of all the peaks in the UPLC chromatogram. For example, if there were two peaks, compound peak with an area of 9 and another peak with an area of 1, then the % AN of the compound peak would be 90%.

Plasma stability = format: in vitro ADME; design: unit not given here; conditions: 37° C., 2 μM substrate
Procedure, shortened: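 LC-MS (Q-Exactive, 5 ppm tolerance, 0.1% formic acid water/acetonitrile gradient) quantified compound in quenched aliquots. Aliquots were taken at 0.05, 0.5, 1, 2, 3 and 4 hr and quenched with internal-standard solution, and supernatants were diluted with water after centrifugation.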

[5] = GI S9 stability - no PMSF; format: in vitro ADME; conditions: pH 7.4; human intestinal S9, PMSF-free; read-out: GIS9-HUMAN-NoPMSF T1/2
Procedure, shortened: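 Stability was assessed by Q-Exactive LC-MS peak area ratios against internal standard, tracking loss of parent and appearance of nucleoside metabolite Reference Compound A. Incubations used 2 μM compound in 1 mg/mL intestinal S9 without PMSF (PBS, pH 7.4), with six samples taken over 120 min.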

[6] = system: Respiratory syncytial virus recombinant with luciferase (RSV-Luc5) in HEp-2 cells; test: microbe, parasite or virus in culture; format: cell-based; conditions: human respiratory syncytial virus, HEp-2, 72 h, read-out: RSV Hep2 EC50
[7] = system: Caco-2 cells (clone C2BBe1); test: CACO-2 permeability; format: in vitro ADME; design: unit not given here; conditions: for DM Caco2 A to B: apical to basolateral, donor pH 6.5, receiver pH 7.4; for DM Caco2 B to A: basolateral to apical
Procedure, shortened: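 A-to-B and B-to-A flux measured by LC-MS/MS from receiver samples taken at 1 and 2 h, with donor sampled at 0 and 2 h and recovery checked. Buffers: pH 6.5 HBSS with 200 μM BNPP on the donor side, pH 7.4 with BSA on the receiver side. Monolayers were 21-day cultures, TEER-verified, in duplicate wells.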

[8] = read-out: EC50 RSVFluc-NHBE 384 V2
[9] = A549, read-out: EC50 SARS CoV2 NanoLuc A549 384

SMILES	EC50 [1, 8] [nM]	CC50 [2] [nM]	EC50 [3, 9] [nM]	logD (physchem)	Stability at pH2, 0 hr ([4]; 0 h, 50 µg/mL, pH 2) [% AN]	Stability at pH2, 3 hr ([4]; 3 h, 50 µg/mL, pH 2) [% AN]	Stability at pH2, 6 hr ([4]; 6 h, 50 µg/mL, pH 2) [% AN]	Stability at pH2, 9 hr ([4]; 9 h, 50 µg/mL, pH 2) [% AN]	Stability at pH2, 12 hr ([4]; 12 h, 50 µg/mL, pH 2) [% AN]	Stability at pH2, 24 hr ([4]; 24 h, 50 µg/mL, pH 2) [% AN]	EC50 ([1]; 72 h, read-out: RSV NHBE EC50) [nM]	EC50 ([3]; 48 h, read-out: SARS-CoV2 EC50) [nM]	STA Human Plasma 37 (Plasma stability)	half-life at 2 µM [5] [min]	EC50 [6] [nM]	pH 2 Stability 24 h % AN ([4]; pH2 phosphate buffer, 40° C., 24 h, Table N2) [% AN]	DM Caco2 A to B [7]	DM Caco2 B to A [7]
C[C@@H](OC(=O)OC[C@H]1O[C@@](C#N)(c2ccc3c(N)ncnn23)[C@H](O)[C@@H]1O)[C@@H](C(=O)OC1CCOCC1)N(C)C [Compound 150, tetrahydro-2H-pyran-4-yl O-((((2R,3S,4R,5R)-5-(4-aminopyrrolo[2,1-f][1,2,4]triazin-7-yl)-5-cyano-3,4-dihydroxytetrahydrofuran-2-yl)methoxy)carbonyl)-N,N-dimethyl-L-threoninate]	3080	> 50000	2370	1.3	–	–	–	–	–	–	–	–	–	–	–	–	–	–
CC(C)OC(=O)[C@H](COC(=O)OC[C@H]1O[C@@](C#N)(c2ccc3c(N)ncnn23)[C@H](O)[C@@H]1O)N(C)C [Compound 151, isopropyl O-((((2R,3S,4R,5R)-5-(4-aminopyrrolo[2,1-f][1,2,4]triazin-7-yl)-5-cyano-3,4-dihydroxytetrahydrofuran-2-yl)methoxy)carbonyl)-N,N-dimethyl-L-serinate]	2890	> 50000	2760	1.3	–	–	–	–	–	–	–	–	–	–	–	–	–	–
C[C@@H](OC(=O)OC[C@H]1O[C@@](C#N)(c2ccc3c(N)ncnn23)[C@H](O)[C@@H]1O)[C@@H](C(=O)OCC(C)(C)C)N(C)C [Compound 147, neopentyl O-((((2R,3S,4R,5R)-5-(4-aminopyrrolo[2,1-f][1,2,4]triazin-7-yl)-5-cyano-3,4-dihydroxytetrahydrofuran-2-yl)methoxy)carbonyl)-N,N-dimethyl-L-threoninate]	2470	> 50000	2850	2.5	–	–	–	–	–	–	–	–	–	–	–	–	–	–
CC(C)(C)OC(=O)C(C)(C)OC(=O)OC[C@H]1O[C@@](C#N)(c2ccc3c(N)ncnn23)[C@H](O)[C@@H]1O [Compound 138, tert-butyl 2-[[(2R,3S,4R,5R)-5-(4-aminopyrrolo[2,1-f][1,2,4]triazin-7-yl)-5-cyano-3,4-dihydroxy-tetrahydrofuran-2-yl]methoxycarbonyloxy]-2-methyl-propanoate]	> 50000	> 50000	21200	2	–	–	–	–	–	–	–	–	–	–	–	–	–	–
CC(C)C(=O)OC[C@H]1O[C@@](C#N)(c2ccc3c(N)ncnn23)[C@H](OC(=O)C(C)C)[C@@H]1OC(=O)C(C)C [2nd Ester Reference Compound]	–	–	–	–	100.0	100.0	100.0	98.3	97.7	96.2	–	–	–	–	–	–	–	–
CC(C)OC(=O)OC[C@H]1O[C@@](C#N)(c2ccc3c(NC(=O)C(C)C)ncnn23)[C@H](OC(=O)C(C)C)[C@@H]1OC(=O)C(C)C [Compound 75, (2R,3R,4R,5R)-2-cyano-2-(4-isobutyramidopyrrolo[2,1-f][1,2,4]triazin-7-yl)-5-(((isopropoxycarbonyl)oxy)methyl)tetrahydrofuran-3,4-diyl bis(2-methylpropanoate)]	–	> 50000	–	–	–	–	–	–	–	–	321	5060	277.1	0.884	1030	0	–	–
N#C[C@@]1(c2ccc3c(N)ncnn23)O[C@H](COC(=O)OC2CCOCC2)[C@@H](O)[C@H]1O [Compound 50, ((2R,3S,4R,5R)-5-(4-aminopyrrolo[2,1-f][1,2,4]triazin-7-yl)-5-cyano-3,4-dihydroxytetrahydrofuran-2-yl)methyl (tetrahydro-2H-pyran-4-yl) carbonate]	–	> 50000	–	–	–	–	–	–	–	–	1370	20400	430.4	15.2	1920	–	0.13	2.76
N#C[C@@]1(c2ccc3c(N)ncnn23)O[C@H](COC(=O)OCC23CC(C2)C3)[C@@H](O)[C@H]1O [Compound 72, ((2R,3S,4R,5R)-5-(4-aminopyrrolo[2,1-f][1,2,4]triazin-7-yl)-5-cyano-3,4-dihydroxytetrahydrofuran-2-yl)methyl (bicyclo[1.1.1]pentan-1-ylmethyl) carbonate]	–	> 50000	–	–	–	–	–	–	–	–	1820	1130	31.1	0.623	779	–	2.52	10.69
N#C[C@@]1(c2ccc3c(N)ncnn23)O[C@H](COC(=O)OC2CC(F)(F)C2)[C@@H](O)[C@H]1O [Compound 73, ((2R,3S,4R,5R)-5-(4-aminopyrrolo[2,1-f][1,2,4]triazin-7-yl)-5-cyano-3,4-dihydroxytetrahydrofuran-2-yl)methyl (3,3-difluorocyclobutyl) carbonate]	–	> 50000	–	–	–	–	–	–	–	–	1100	1900	70	0.588	206	–	0.48	4.69
N#C[C@@]1(c2ccc3c(N)ncnn23)O[C@H](COC(=O)OC(CF)CF)[C@@H](O)[C@H]1O [Compound 94, ((2R,3S,4R,5R)-5-(4-aminopyrrolo[2,1-f][1,2,4]triazin-7-yl)-5-cyano-3,4-dihydroxytetrahydrofuran-2-yl)methyl (1,3-difluoropropan-2-yl) carbonate]	–	> 50000	–	–	–	–	–	–	–	–	923	3630	105.4	1.13	1020	–	0.13	2.19
CCC(C)(C)OC(=O)OC[C@H]1O[C@@](C#N)(c2ccc3c(N)ncnn23)[C@H](O)[C@@H]1O [Compound 70, ((2R,3S,4R,5R)-5-(4-aminopyrrolo[2,1-f][1,2,4]triazin-7-yl)-5-cyano-3,4-dihydroxytetrahydrofuran-2-yl)methyl tert-pentyl carbonate]	–	> 50000	–	–	–	–	–	–	–	–	2180	2810	1399.3	73	1720	–	0.88	6.91
N#C[C@@]1(c2ccc3c(N)ncnn23)O[C@H](COC(=O)OCCN2CCOCC2)[C@@H](O)[C@H]1O [Compound 92, ((2R,3S,4R,5R)-5-(4-aminopyrrolo[2,1-f][1,2,4]triazin-7-yl)-5-cyano-3,4-dihydroxytetrahydrofuran-2-yl)methyl (2-morpholinoethyl) carbonate]	–	> 50000	–	–	–	–	–	–	–	–	3040	5630	139.9	238	1800	–	0.07	0.48
CC1(C)CC(OC(=O)OC[C@H]2O[C@@](C#N)(c3ccc4c(N)ncnn34)[C@H](O)[C@@H]2O)C1 [Compound 31, ((2R,3S,4R,5R)-5-(4-aminopyrrolo[2,1-f][1,2,4]triazin-7-yl)-5-cyano-3,4-dihydroxytetrahydrofuran-2-yl)methyl (3,3-dimethylcyclobutyl) carbonate]	–	> 50000	–	–	–	–	–	–	–	–	803	1080	32.4	0.857	322	–	0.68	13
